Here are results for 3 compounds from ChEMBL document CHEMBL3826908, “Bortezomib inhibits bacterial and fungal β-carbonic anhydrases” (Bioorg Med Chem, 2016).

Each structure is given as a SMILES string.

The nature of assay [1]: Inhibition of Candida glabrata beta-carbonic anhydrase preincubated for 15 mins by stopped-flow CO2 hydration assay. Also noted: species or system Nakaseomyces glabratus.
A short description of assay [2]: Inhibition of Cryptococcus neoformans beta-carbonic anhydrase preincubated for 15 mins by stopped-flow CO2 hydration assay.
Assay [3] in a line: Inhibition of Malassezia globosa beta-carbonic anhydrase preincubated for 15 mins by stopped-flow CO2 hydration assay.
Assay [4] in a line: Inhibition of Mycobacterium tuberculosis beta-carbonic anhydrase Rv3588 preincubated for 15 mins by stopped-flow CO2 hydration assay.
A short description of assay [5]: Inhibition of Drosophila melanogaster beta-carbonic anhydrase preincubated for 15 mins by stopped-flow CO2 hydration assay.
Assay [6] in a line: Inhibition of Flaveria bidentis beta-carbonic anhydrase preincubated for 15 mins by stopped-flow CO2 hydration assay.
A short description of assay [7]: Inhibition of Candida albicans beta-carbonic anhydrase preincubated for 15 mins by stopped-flow CO2 hydration assay.
Assay [8] can be described thus: Inhibition of Mycobacterium tuberculosis beta-carbonic anhydrase Rv3273 preincubated for 15 mins by stopped-flow CO2 hydration assay.
The target of assay [9] is T1, Beta-carbonic anhydrase 1 (Mycobacterium tuberculosis, UniProt P9WPJ7).
T1 sequence (P9WPJ7 whole entry): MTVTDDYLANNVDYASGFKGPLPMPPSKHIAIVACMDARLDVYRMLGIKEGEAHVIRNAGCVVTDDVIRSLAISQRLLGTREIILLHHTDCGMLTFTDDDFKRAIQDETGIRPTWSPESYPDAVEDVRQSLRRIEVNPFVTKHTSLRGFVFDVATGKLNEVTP
The assay is described as follows: Inhibition of Mycobacterium tuberculosis beta-carbonic anhydrase Rv1284 preincubated for 15 mins by stopped-flow CO2 hydration assay.

The next assay has as its target Carbonic anhydrase 1 (Homo sapiens, UniProt P00915).
For the next assay, the target named is Carbonic anhydrase 2 (Homo sapiens, UniProt P00918).

Chain of Carbonic anhydrase 1 (P00915 whole entry): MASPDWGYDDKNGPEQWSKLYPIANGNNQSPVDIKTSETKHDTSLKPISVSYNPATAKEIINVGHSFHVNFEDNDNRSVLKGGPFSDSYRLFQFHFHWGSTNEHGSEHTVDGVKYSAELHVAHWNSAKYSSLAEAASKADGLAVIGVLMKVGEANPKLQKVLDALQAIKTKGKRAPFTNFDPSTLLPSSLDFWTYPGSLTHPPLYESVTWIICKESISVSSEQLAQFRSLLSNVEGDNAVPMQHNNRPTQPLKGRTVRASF

In general, Ki refers to the equilibrium dissociation constant of an inhibitor or competing ligand from its target. For the compound `CC(=O)Nc1nnc(S(N)(=O)=O)s1` [ACETAZOLAMIDE], the inhibitory constant (Ki) in assay [1] was determined as 0.011 µM; in [2], 0.01 µM; in assay [3], 74 µM; in assay [4], 0.01 µM; in assay [5], 0.049 µM; in [6] it was […].

Consider `CC(C)C[C@H](NC(=O)[C@H](Cc1ccccc1)NC(=O)c1cnccn1)B(O)O` [BORTEZOMIB], for which the Ki in [7] was found to be 1.12 µM; in [1] it was 5.73 µM; in [2] it was 4.7 µM; in assay [3], 3.24 µM; in assay [8], 6.5 µM; in assay [9], 7.3 µM. For the same compound, the Ki in assay [4] was 4.2 µM; in assay [5], 11.3 µM; in [6], 8.45 µM; on Carbonic anhydrase 1 it was 1.29 µM; at Carbonic anhydrase 2, 1.16 µM.

Consider `OB(O)c1ccccc1` [PHENYLBORONIC ACID], for which the inhibition constant (Ki) was above 100 µM in [7]; 100 µM in assay [1]; above 100 µM in assay [2]; 89 µM in [3]; 67 µM in assay [8]; 58 µM in [9]. Also, the inhibition constant Ki was 48 µM in assay [4]; above 100 µM in [5]; 8 µM in assay [6]; above 100 µM on Carbonic anhydrase 1; above 100 µM at Carbonic anhydrase 2.
